Experimental data reported in the NIST ThermoML archive (doi:10.1016/j.jct.2015.07.025).
“And” between values parts separate entries of the source, which are not always exact repeats. Equal values may be shown once.

Legend:
[1] = for Normal melting temperature: Crystal, DTA; for vapor or sublimation pressure: Liquid, Transpiration method
[2] = Molar enthalpy of transition or fusion; details: Crystal; DSC

Cc1cc(C)c(C#N)c(C)c1 [2,4,6-trimethylbenzonitrile]
Details | Molar enthalpy of transition or fusion [kcal/mol] | Normal melting temperature [°C]
[1] | – | 52.4
[2] | 3.7 | –

Cc1ccccc1C#N [2-methylbenzonitrile]
[1]
Details | vapor or sublimation pressure
287.4 K | 0.02064 kPa
289.2 K | 0.02389 kPa
290.3 K | 0.02582 kPa
292.4 K | 0.03043 kPa
296.3 K | 0.04075 kPa
298.1 K | 0.0467 kPa
300.7 K | 0.05531 kPa
305.1 K | 0.07684 kPa
308.2 K | 0.0961 kPa
311 K | 0.1162 kPa
312 K | 0.1257 kPa and 0.1248 kPa
314.9 K | 0.1494 kPa
316.1 K | 0.1625 kPa
318.1 K | 0.1865 kPa
321.1 K | 0.2216 kPa
322.2 K | 0.2425 kPa
324.2 K | 0.2729 kPa

Cc1cccc(C#N)c1 [3-cyanotoluene]
[1]
Details | vapor or sublimation pressure [kPa]
279.8 K | 0.0072
281.3 K | 0.00829
283.7 K | 0.01033
285.7 K | 0.01206
288.3 K | 0.01513
290.3 K | 0.01801
292.4 K | 0.02154
294.3 K | 0.02516
297.2 K | 0.03103
300 K | 0.03937
302.1 K | 0.04606
304.1 K | 0.05317
307.7 K | 0.06905
309.2 K | 0.0755
310.1 K | 0.08291
312 K | 0.09159
313.7 K | 0.1049

Cc1ccc(C#N)cc1 [4-cyanotoluene]
[1]
Details | vapor or sublimation pressure
302.1 K | 0.03154 kPa
303.2 K | 0.03377 kPa
305.3 K | 0.04002 kPa
309.1 K | 0.05079 kPa
311 K | 0.06008 kPa
313.1 K | 0.06747 kPa
315 K | 0.07922 kPa
319.1 K | 0.09993 kPa
320.9 K | 0.1159 kPa
322.9 K | 0.1303 kPa
325 K | 0.1463 kPa and 0.1458 kPa
329 K | 0.1856 kPa
331 K | 0.2118 kPa
332.8 K | 0.2374 kPa
334.9 K | 0.2629 kPa

Details | Molar enthalpy of transition or fusion [kcal/mol] | Normal melting temperature [°C]
[1] | – | 26.2
[2] | 3.85 | –
